In patent publication US20190322676A1, “CERAMIDE GALACTOSYLTRANSFERASE INHIBITORS FOR THE TREATMENT OF DISEASE” (BioMarin Pharmaceutical Inc., priority 2016, published 2019):
Where a name gives a salt, the structure may show the parent alone.

Target: T1, human CGT (ceramide galactosyltransferase), CHO/CGT lysate (Homo sapiens, UniProt Q16880)
T1 construct: Full-length human CGT cDNA was cloned into the BamH1/Xho1 site of pcDNA3.1 (+); expressed in transfected cells; host or cells: Chinese hamster ovary (CHO) cells; lysate prepared with M-PER
T1 sequence (Q16880 21-541): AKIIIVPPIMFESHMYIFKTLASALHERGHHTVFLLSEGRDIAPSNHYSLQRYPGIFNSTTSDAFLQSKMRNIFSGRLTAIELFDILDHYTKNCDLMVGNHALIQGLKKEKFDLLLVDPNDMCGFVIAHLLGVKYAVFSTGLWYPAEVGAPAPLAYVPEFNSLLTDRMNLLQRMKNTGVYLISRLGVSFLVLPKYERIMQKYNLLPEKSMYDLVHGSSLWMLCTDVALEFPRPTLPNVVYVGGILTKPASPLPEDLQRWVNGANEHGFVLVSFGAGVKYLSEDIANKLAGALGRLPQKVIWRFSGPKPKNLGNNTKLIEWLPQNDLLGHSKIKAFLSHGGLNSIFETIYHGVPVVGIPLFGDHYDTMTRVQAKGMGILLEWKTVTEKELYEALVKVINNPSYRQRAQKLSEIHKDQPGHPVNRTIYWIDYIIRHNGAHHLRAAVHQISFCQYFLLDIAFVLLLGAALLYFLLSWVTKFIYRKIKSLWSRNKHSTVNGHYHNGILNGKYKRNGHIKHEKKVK
Test: CGT enzyme assay, LC-MS/MS readout (Table 1 ranges without asterisk)
Format: biochemical
Conditions: LC-MS/MS method (range without asterisk)
Protocol: Full-length human CGT cDNA was cloned into the BamH1/Xho1 site of pcDNA3.1 (+) mammalian expression vector (V90-20, Invitrogen, Carlsbad, Calif.) and the plasmid was transfected into Chinese hamster ovary (CHO) cells. Lysate was prepared using M-PER (Mammalian Protein Extraction Reagent, ThermoFisher Scientific, Grand Island, N.Y.) in the presence of a protease inhibitor cocktail (P8340, Sigma, Saint Louis, Mo.). Each 100 mm dish (100% confluent, approximately 1×10^7 cells) was lysed with 250 μL of M-PER containing protease inhibitors. Protein concentration was determined using a Pierce BCA protein assay kit (ThermoFisher Scientific). Four micrograms of CHO/CGT lysate was incubated with various concentrations of a compound (0.001 μM-50 μM) in 10 mM HEPES (pH 7.2) containing 35 μM dioleoylphosphatidylcholine, 5 mM MgCl2, 5 mM MnCl2, 1% BSA, 15 mM KCl, 1 mM EGTA, 8 mM CHAPS, 10 μM C6-NBD-dihydro-ceramide and 17.5 μM UDP-galactose in a final reaction volume of 20 μL at 37° C. for 1 hour. The final concentration of DMSO was 0.5% in both compound-treated and mock-treated samples. Tween 80 (0.01%) was optionally added to the reaction mixture to help solubilize the compounds. Each individual reaction was diluted with 80 μL of methanol:acetronitrile (1:3) containing 5 μM N-docdecanoyl-NBD-galactosylceramide (internal standard) to stop the reaction. 200 μL H2O:acetonitile (1:1) was added to precipitate the protein. After sufficient mixing, the plates were centrifuged at 2469 g for 38 minutes, 200 μL of supernatant was transferred to a LC/MS 96-deep well plate and a second spin was performed at 2469 g for 10 minutes. The final supernatant was injected in triplicate for RapidFire/MS/MS analysis.
An alternative LC-MS/MS based method was also used. For the LC-MS/MS readout, the CGT assay was identical to the one described above except for the following: […] was used as the CGT enzyme source, C12:0 (2R—OH) ceramide was used as the ceramide substrate and 0.3 μM Cl2 ceramide was used as the internal standard. Tween 80 was not present in the reaction mixture. The final supernatant was injected for LC-MS/MS analysis.
Quantitative analysis using the LC-MS/MS method: The quantitative analysis of C12:0 (2R—OH) ceramide and C12:0 (2R—OH) galactosylceramide by LC-MS/MS was performed on a Shimadzu ultra-fast liquid chromatography (Shimadzu, Japan) coupled with API 4000 mass spectrometer (Applied Biosystems, Concord, Ontario, Canada). Analyst 1.5 software packages (Applied Biosystems) were used to control the LC-MS/MS system, as well as for data acquisition and processing. 10 μL of sample was loaded onto a Luna C18 column (50 mm×2.0 mm, I.D. 3 μm, 100A) (Phenomenex, USA) for chromatographic separation. Mobile phase A consisted of HPLC grade water with 0.1% formic acid (v/v) and mobile phase B consisted of acetonitrile supplemented with 0.1% formic acid (v/v). The separation was achieved using the following gradient program at a flow rate of 0.8 mL/min: the initial mobile phase was 70% B, which was increased in a linear fashion to 95% B in 1.50 min, and then maintained at 95% B until 3.50 min. The mobile phase was then reset to 70% B within 0.01 min, and maintained until 4.50 min. The total run time was 4.50 min. The MS/MS detection was performed in ESI positive mode. The mass transition selected for quantification was m/z 498.5-264.3 for C12:0 (2R—OH) ceramide under the collision energy of 38.8 V, and the mass transition of C12:0 (2R—OH) galactosylceramide was m/z 660.6-264.5 under the collision energy of 51 V. The mass transition of Cl2 ceramide which was used as internal standard was m/z 482.4-264.3 under the collision energy of 33V. Compound IC50 values were calculated using a protocol identical to the one described for the RapidFire method (see Table 1, where data ranges without an asterix correspond to analysis using the LC-MS/MS method).
Using the above CGT enzyme and CGT cellular assays, the compounds of Table 1 were tested. […]

SMILES	IC50
NC1CC2CCC(C1)N2C(=O)[C@H](NS(=O)(=O)c1ccc(-c2ccc(F)cc2)cc1)C(F)(F)c1ccc(Br)cc1 (stereo partly drawn) [Compound 3-2, N-((2S)-3-(3-amino-8-azabicyclo[3.2.1]octan-8-yl)-1-(4-bromophenyl)-1,1-difluoro-3-oxopropan-2-yl)-4′-fluoro-[1,1′-biphenyl]-4-sulfonamide]	30 to 100 µM
CC(C)Oc1ccc2cc(CCS(=O)(=O)NC(C(=O)N3C4CCC3CC(N)C4)C(F)(F)c3ccc(Br)cc3)ccc2c1 (stereo not shown) [Compound 4, N-(3-(3-amino-8-azabicyclo[3.2.1]octan-8-yl)-1-(4-bromophenyl)-1,1-difluoro-3-oxopropan-2-yl)-2-(6-isopropoxynaphthalen-2-yl)ethanesulfonamide trifluoroacetate]	10 to 30 µM
NC1CC2CCC(C1)N2C(=O)C(NS(=O)(=O)c1ccc2cc(OC3CCCC3)ccc2c1)C(F)(F)c1ccc(Br)cc1 (stereo not shown) [Compound 5, N-(3-(3-amino-8-azabicyclo[3.2.1]octan-8-yl)-1-(4-bromophenyl)-1,1-difluoro-3-oxopropan-2-yl)-6-(cyclopentyloxy)naphthalene-2-sulfonamide trifluoroacetate]	1 to 10 µM
NC1CC2CCC(C1)N2C(=O)[C@H](NS(=O)(=O)c1ccc2cc(OC3CCCC3)ccc2c1)C(F)(F)c1ccc(Br)cc1 (stereo partly drawn) [Compound 5-2, N-((2S)-3-(3-amino-8-azabicyclo[3.2.1]octan-8-yl)-1-(4-bromophenyl)-1,1-difluoro-3-oxopropan-2-yl)-6-(cyclopentyloxy)naphthalene-2-sulfonamide trifluoroacetate]	1 to 10 µM
CCCCOc1ccc2cc(S(=O)(=O)N[C@H](C(=O)N3C4CCC3CC(N)C4)C(F)(F)c3ccc(Br)cc3)ccc2c1 (stereo partly drawn) [Compound 6-1, N-((2R)-3-(3-amino-8-azabicyclo[3.2.1]octan-8-yl)-1-(4-bromophenyl)-1,1-difluoro-3-oxopropan-2-yl)-6-butoxynaphthalene-2-sulfonamide trifluoroacetate]	1 to 10 µM
CCCCOc1ccc2cc(S(=O)(=O)N[C@@H](C(=O)N3C4CCC3CC(N)C4)C(F)(F)c3ccc(Br)cc3)ccc2c1 (stereo partly drawn) [Compound 6-2, N-((2S)-3-(3-amino-8-azabicyclo[3.2.1]octan-8-yl)-1-(4-bromophenyl)-1,1-difluoro-3-oxopropan-2-yl)-6-butoxynaphthalene-2-sulfonamide trifluoroacetate]	30 to 100 µM
CC(C)COc1ccc2cc(S(=O)(=O)N[C@H](C(=O)N3C4CCC3CC(N)C4)C(F)(F)c3ccc(Br)cc3)ccc2c1 (stereo partly drawn) [Compound 7-1, N-((2R)-3-(3-amino-8-azabicyclo[3.2.1]octan-8-yl)-1-(4-bromophenyl)-1,1-difluoro-3-oxopropan-2-yl)-6-isobutoxynaphthalene-2-sulfonamide]	1 to 10 µM
CC(C)COc1ccc2cc(S(=O)(=O)N[C@@H](C(=O)N3C4CCC3CC(N)C4)C(F)(F)c3ccc(Br)cc3)ccc2c1 (stereo partly drawn) [Compound 7-2, N-((2S)-3-(3-amino-8-azabicyclo[3.2.1]octan-8-yl)-1-(4-bromophenyl)-1,1-difluoro-3-oxopropan-2-yl)-6-isobutoxynaphthalene-2-sulfonamide]	30 to 100 µM
CC(C)Oc1ccc2cc(S(=O)(=O)N[C@@H](C(=O)N3C4CCC3CC(N)C4)C(F)(F)c3ccc(Cl)cc3)ccc2c1 (stereo partly drawn) [Compound 8-2, N-((2S)-3-(3-amino-8-azabicyclo[3.2.1]octan-8-yl)-1-(4-chlorophenyl)-1,1-difluoro-3-oxopropan-2-yl)-6-isopropoxynaphthalene-2-sulfonamide trifluoroacetate]	10 to 30 µM
CC(C)Oc1ccc2cc(C(=O)C(=O)N[C@H](C(=O)N3C4CCC3CC(N)C4)C(F)(F)c3ccc(Br)cc3)ccc2c1 (stereo partly drawn) [Compound 9-1, N-((2R)-3-(3-amino-8-azabicyclo[3.2.1]octan-8-yl)-1-(4-bromophenyl)-1,1-difluoro-3-oxopropan-2-yl)-2-(6-isopropoxynaphthalen-2-yl)-2-oxoacetamide trifluoroacetate]	10 to 30 µM
CC(C)Oc1ccc2cc(C(=O)C(=O)N[C@@H](C(=O)N3C4CCC3CC(N)C4)C(F)(F)c3ccc(Br)cc3)ccc2c1 (stereo partly drawn) [Compound 9-2, N-((2S)-3-(3-amino-8-azabicyclo[3.2.1]octan-8-yl)-1-(4-bromophenyl)-1,1-difluoro-3-oxopropan-2-yl)-2-(6-isopropoxynaphthalen-2-yl)-2-oxoacetamide trifluoroacetate]	30 to 100 µM
NC1CC2CCC(C1)N2C(=O)[C@@H](NS(=O)(=O)c1ccc2cc(Oc3ccccn3)ccc2c1)C(F)(F)c1ccc(Br)cc1 (stereo partly drawn) [Compound 10-1, N-((2R)-3-(3-amino-8-azabicyclo[3.2.1]octan-8-yl)-1-(4-bromophenyl)-1,1-difluoro-3-oxopropan-2-yl)-6-(pyridin-2-yloxy)naphthalene-2-sulfonamide trifluoroacetate]	30 to 100 µM
NC1CC2CCC(C1)N2C(=O)[C@@H](NS(=O)(=O)c1ccc(OCc2ccccc2)cc1)C(F)(F)c1ccc(Br)cc1 (stereo partly drawn) [Compound 11-1, N-((2R)-3-(3-amino-8-azabicyclo[3.2.1]octan-8-yl)-1-(4-bromophenyl)-1,1-difluoro-3-oxopropan-2-yl)-4-(benzyloxy)benzenesulfonamide trifluoroacetate]	10 to 30 µM
NC1CC2CCC(C1)N2C(=O)[C@H](NS(=O)(=O)c1ccc(OCc2ccccc2)cc1)C(F)(F)c1ccc(Br)cc1 (stereo partly drawn) [Compound 11-2, N-((2S)-3-(3-amino-8-azabicyclo[3.2.1]octan-8-yl)-1-(4-bromophenyl)-1,1-difluoro-3-oxopropan-2-yl)-4-(benzyloxy)benzenesulfonamide trifluoroacetate]	30 to 100 µM
NC1CC2CCC(C1)N2C(=O)[C@@H](NS(=O)(=O)c1ccc(OCC2CCCCC2)cc1)C(F)(F)c1ccc(Br)cc1 (stereo partly drawn) [Compound 12-1, N-((2R)-3-(3-amino-8-azabicyclo[3.2.1]octan-8-yl)-1-(4-bromophenyl)-1,1-difluoro-3-oxopropan-2-yl)-4-(cyclohexylmethoxy)benzenesulfonamide trifluoroacetate]	10 to 30 µM
CC[C@@H](C)Oc1ccc2cc(S(=O)(=O)N[C@H](C(=O)N3C4CCC3CC(N)C4)C(F)(F)c3ccc(Br)cc3)ccc2c1 (stereo partly drawn) [Compound 13-1, N-((2R)-3-(3-amino-8-azabicyclo[3.2.1]octan-8-yl)-1-(4-bromophenyl)-1,1-difluoro-3-oxopropan-2-yl)-6-((R)-sec-butoxy)naphthalene-2-sulfonamide]	1 to 10 µM
